# Molecular target: T1, dopamine D1 receptor (Homo sapiens, UniProt P21728)
# T1 construct: host or cells: LMtk (Ltk-) mouse fibroblast cells
# Assay: cAMP HTRF potentiation assay (presence of EC20 dopamine)
# Assay type: cell-based
# Conditions: potentiation of cAMP in presence of EC20 dopamine (1.1 nM); LMtk (Ltk-) mouse fibroblast cells expressing the dopamine D1 receptor
# From the text: The present assay allows to measure respectively the effects of compounds of the Examples in the absence of dopamine (“activation assay”) and the effects of compounds of the Examples in the presence of dopamine (“potentiation assay”).
# The potentiation assay measures the ability of compounds to increase the levels of cAMP produced by a low-threshold concentration of dopamine. The concentration of dopamine used ([EC20]) is designed to produce 20% stimulation compared to the maximal response (100%) seen with increasing the concentration of dopamine. To measure this potentiation we incubate increasing concentrations of the compound with the [EC2O] of dopamine and measure the potentiation as increases in cAMP production. The pEC50 of a compound is the −log 10 of the concentration of the compound which produces 50% of the potentiation of the cAMP levels and the Erel is the relative efficacy, defined as the maximal % potentiation produced by the compound compared to the maximal response produced by increasing concentrations of dopamine (Erel of 1=dopamine maximum response).
# Cells were cultured at 37° C. in a humidified atmosphere of 5% CO2. Cells were grown in DMEM-F12+GlutaMAX™-I medium (GIBCO®, Invitrogen, Merelbeke, Belgium) containing 10% fetal bovine serum (BioWhittaker®, Lonza, Verviers, Belgium), 400 μg/mL Geneticin (GIBCO®), 100 IU/mL Penicillin and 100 IU/mL Streptomycin (Pen-Strep solution, BioWhittaker®).
# The measurement of changes in intracellular cyclic adenosinemonophopshpate (cAMP) was determined using the HTRF cAMP dynamic assay kit from CisBio (Codolet, France). Using homogenous time-resolved fluoresence technology, the assay is based on competition between native cAMP produced by cells and cAMP labelled with the dye d2. The tracer binding is determined by an anti-cAMP antibody labeled with cryptate. The effects of the compound alone (agonism) was determined by performing the assay in the absence of dopamine, whilst the effect of the compound as a positive allosteric modulator (PAM) was determined in the presence of an EC20 concentration of dopamine. Cells (20,000 per well) are incubated in 384 plates for 1 hour at room temperature in a final volume of 20 μLHBSS (Lonza, with calcium, magnesium and HEPES buffer 20 mM, pH 7.4) containing: isobutyl methylxanthine (Sigma, 0.1 mM final), varying concentrations of test compound (typically […] to 10^−4.5M) in the presence and absence of dopamine (1.1 nM final). The reaction is then terminated and the cells lysed by adding the d2 detection reagent in lysis buffer (10 microL) and the cryptate reagent in lysis buffer (10 microl) according to manufacturer's instructions. This is then incubated for a further 60 min at room temperature and changes in HTRF fluorescent emission ratio determined according to manufacturer's instructions using an Envision plate reader (Perkin Elmer, Zaventem, Belgium) with laser excitation. All incubations were performed in duplicate and results were compared to a concentration-effect curve to dopamine. (10^−11M to 10^−6M).
# Data was analyzed using Excel and PRISM (GraphPad Software) to obtain pEC50 and Erel using the 4-parameter logistic equation (DeLean et al, 1978) where Erel is the fitted maximal response of the test compound minus basal expressed as a percentage relative to that obtained with dopamine which was defined as 100%.
# T1 sequence (P21728 whole entry): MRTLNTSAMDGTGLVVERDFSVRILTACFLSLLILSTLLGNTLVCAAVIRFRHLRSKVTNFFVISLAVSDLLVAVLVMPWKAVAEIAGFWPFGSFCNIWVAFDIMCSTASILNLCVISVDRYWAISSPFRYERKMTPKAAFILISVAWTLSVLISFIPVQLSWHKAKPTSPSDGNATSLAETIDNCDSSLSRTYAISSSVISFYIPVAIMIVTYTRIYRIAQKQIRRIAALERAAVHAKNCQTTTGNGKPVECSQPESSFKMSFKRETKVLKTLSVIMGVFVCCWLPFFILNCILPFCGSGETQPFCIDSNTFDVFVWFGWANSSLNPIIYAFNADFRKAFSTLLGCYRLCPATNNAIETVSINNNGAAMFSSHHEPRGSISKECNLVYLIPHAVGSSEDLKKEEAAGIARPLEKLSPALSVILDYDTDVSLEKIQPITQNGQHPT
row,EC50 [µM],SMILES
1,0.0316 to 0.1,"C[C@H]1c2cccc([C@@H](O)C(F)F)c2CCN1C(=O)Cc1c(Cl)ccc2c1c(Cl)nn2C [Example 10, 2-(3,5-dichloro-1-methyl-indazol-4-yl)-1-[(1S)-5-[(1R)-2,2-difluoro-1-hydroxy-ethyl]-1-methyl-3,4-dihydro-1H-isoquinolin-2-yl]ethanone]"
2,≤ 0.0316,"C[C@H]1c2cccc([C@@H](O)C(F)F)c2CCN1C(=O)Cc1c(Cl)ccc2[nH]nc(Cl)c12 [Example 4, 2-(3,5-dichloro-1H-indazol-4-yl)-1-[(1S)-5-[(1R)-2,2-difluoro-1-hydroxy-ethyl]-1-methyl-3,4-dihydro-1H-isoquinolin-2-yl]ethanone]"
3,0.0316 to 0.1,"C[C@H]1c2cccc([C@H](O)C(F)F)c2CCN1C(=O)Cc1c(Cl)ccc2nn(C)c(Cl)c12 [Example 9, 2-(3,5-dichloro-2-methyl-indazol-4-yl)-1-[(1S)-5-[(1S)-2,2-difluoro-1-hydroxy-ethyl]-1-methyl-3,4-dihydro-1H-isoquinolin-2-yl]ethanone]"
4,≤ 0.0316,"C[C@H]1c2cccc([C@H](O)C(F)F)c2CCN1C(=O)Cc1c(Cl)ccc2[nH]nc(Cl)c12 [Example 5, 2-(3,5-dichloro-1H-indazol-4-yl)-1-[(1S)-5-[(1S)-2,2-difluoro-1-hydroxy-ethyl]-1-methyl-3,4-dihydro-1H-isoquinolin-2-yl]ethanone]"
5,≤ 0.0316,"C[C@H]1c2cccc(C(C)(O)C(F)F)c2CCN1C(=O)Cc1c(Cl)ccc2[nH]nc(Cl)c12 (single isomer, unassigned) [Example 6]"
6,≤ 0.0316,"C[C@H]1c2cccc([C@H](O)C(F)F)c2CCN1C(=O)Cc1c(Cl)ccc2onc(Cl)c12 [Example 1, 2-(3,5-dichloro-1,2-benzoxazol-4-yl)-1-[(1S)-5-[(1S)-2,2-difluoro-1-hydroxy-ethyl]-1-methyl-3,4-dihydro-1H-isoquinolin-2-yl]ethanone]"
7,0.0316 to 0.1,"C[C@H]1c2cccc(C(C)(O)C(F)F)c2CCN1C(=O)Cc1c(Cl)ccc2c1c(Cl)nn2C (single isomer, unassigned) [Example 26]"
8,0.0316 to 0.1,"C[C@H]1c2cccc([C@H](O)C(F)F)c2CCN1C(=O)Cc1c(Cl)ccc2c1c(Cl)nn2C [Example 11, 2-(3,5-dichloro-1-methyl-indazol-4-yl)-1-[(1S)-5-[(1S)-2,2-difluoro-1-hydroxy-ethyl]-1-methyl-3,4-dihydro-1H-isoquinolin-2-yl]ethanone]"
9,≤ 0.0316,"C[C@H]1c2cccc([C@@H](O)C(F)F)c2CCN1C(=O)Cc1c(Cl)ccc2nn(C)c(Cl)c12 [Example 8, 2-(3,5-dichloro-2-methyl-indazol-4-yl)-1-[(1S)-5-[(1R)-2,2-difluoro-1-hydroxy-ethyl]-1-methyl-3,4-dihydro-1H-isoquinolin-2-yl]ethanone]"
10,≤ 0.0316,"C[C@H]1c2cccc([C@H](O)C(F)F)c2CCN1C(=O)Cc1c(Cl)ccn2ncc(Cl)c12 [Example 30, 2-(3,5-dichloropyrazolo[1,5-a]pyridin-4-yl)-1-[(1S)-5-[(1S)-2,2-difluoro-1-hydroxy-ethyl]-1-methyl-3,4-dihydro-1H-isoquinolin-2-yl]ethanone]"
11,0.0316 to 0.1,"C[C@H]1c2cccc(C(C)(O)C(F)F)c2CCN1C(=O)Cc1c(Cl)ccc2nn(C)c(Cl)c12 (single isomer, unassigned) [Example 12]"

# More lines, now with the values behind:
row,SMILES,EC50 [µM]
1,"C[C@H]1c2cccc([C@](C)(O)CF)c2CCN1C(=O)Cc1c(Cl)ccn2ncc(Cl)c12 [Example 29, 2-(3,5-dichloropyrazolo[1,5-a]pyridin-4-yl)-1-[(1S)-5-[(1S)-2-fluoro-1-hydroxy-1-methyl-ethyl]-1-methyl-3,4-dihydro-1H-isoquinolin-2-yl]ethanone]",≤ 0.0316
2,"C[C@H]1c2cccc(C(O)(CF)CF)c2CCN1C(=O)Cc1c(Cl)ccc2c1c(Cl)nn2C [Example 28, 2-(3,5-dichloro-1-methyl-indazol-4-yl)-1-[(1S)-5-[2-fluoro-1-(fluoromethyl)-1-hydroxy-ethyl]-1-methyl-3,4-dihydro-1H-isoquinolin-2-yl]ethanone]",≤ 0.0316
3,"C[C@H]1c2cccc([C@](C)(O)CF)c2CCN1C(=O)Cc1c(Cl)ccc2c1c(Cl)nn2C [Example 25, 2-(3,5-dichloro-1-methyl-indazol-4-yl)-1-[(1S)-5-[(1S)-2-fluoro-1-hydroxy-1-methyl-ethyl]-1-methyl-3,4-dihydro-1H-isoquinolin-2-yl]ethanone]",0.0316 to 0.1
4,"C[C@H]1c2cccc(C(C)(O)C(F)F)c2CCN1C(=O)Cc1c(Cl)cnc2c1c(Cl)nn2C (single isomer, unassigned) [Example 21]",≤ 0.0316
5,"C[C@H]1c2cccc([C@@](C)(O)CF)c2CCN1C(=O)Cc1c(Cl)ccc2c1c(Cl)nn2C [Example 24, 2-(3,5-dichloro-1-methyl-indazol-4-yl)-1-[(1S)-5-[(1R)-2-fluoro-1-hydroxy-1-methyl-ethyl]-1-methyl-3,4-dihydro-1H-isoquinolin-2-yl]ethanone]",0.0316 to 0.1
6,"C[C@H]1c2cccc([C@@](C)(O)CF)c2CCN1C(=O)Cc1c(Cl)cnc2c1c(Cl)nn2C [Example 19, 2-(3,5-dichloro-1-methyl-pyrazolo[3,4-b]pyridin-4-yl)-1-[(1S)-5-((1R)-2-fluoro-1-hydroxy-1-methyl-ethyl)-1-methyl-3,4-dihydro-1H-isoquinolin-2-yl]ethanone]",0.0316 to 0.1
7,"C[C@H]1c2cccc(C(C)(O)C(F)F)c2CCN1C(=O)Cc1c(Cl)cnc2[nH]nc(Cl)c12 (single isomer, unassigned) [Example 16]",≤ 0.0316
8,"C[C@H]1c2cccc([C@](C)(O)CF)c2CCN1C(=O)Cc1c(Cl)cnc2[nH]nc(Cl)c12 [Example 14, 2-(3,5-dichloro-1H-pyrazolo[3,4-b]pyridin-4-yl)-1-[(1S)-5-[(1S)-2-fluoro-1-hydroxy-1-methyl-ethyl]-1-methyl-3,4-dihydro-1H-isoquinolin-2-yl]ethanone]",≤ 0.0316
9,"C[C@H]1c2cccc([C@@](C)(O)CF)c2CCN1C(=O)Cc1c(Cl)ccc2[nH]nc(Cl)c12 [Example 2, 2-(3,5-dichloro-1H-indazol-4-yl)-1-[(1S)-5-[(1R)-2-fluoro-1-hydroxy-1-methyl-ethyl]-1-methyl-3,4-dihydro-1H-isoquinolin-2-yl]ethanone]",≤ 0.0316
10,"C[C@H]1c2cccc([C@@](C)(O)CF)c2CCN1C(=O)Cc1c(Cl)cnc2[nH]nc(Cl)c12 [Example 15, 2-(3,5-dichloro-1H-pyrazolo[3,4-b]pyridin-4-yl)-1-[(1S)-5-[(1R)-2-fluoro-1-hydroxy-1-methyl-ethyl]-1-methyl-3,4-dihydro-1H-isoquinolin-2-yl]ethanone]",≤ 0.0316
11,"C[C@H]1c2cccc([C@](C)(O)CF)c2CCN1C(=O)Cc1c(Cl)cnc2c1c(Cl)nn2C [Example 20, 2-(3,5-dichloro-1-methyl-pyrazolo[3,4-b]pyridin-4-yl)-1-[(1S)-5-((1S)-2-fluoro-1-hydroxy-1-methyl-ethyl)-1-methyl-3,4-dihydro-1H-isoquinolin-2-yl]ethanone]",≤ 0.0316
12,"C[C@H]1c2cccc(C(O)(CF)CF)c2CCN1C(=O)Cc1c(Cl)cnc2[nH]nc(Cl)c12 [Example 18, 2-(3,5-dichloro-1H-pyrazolo[3,4-b]pyridin-4-yl)-1-[(1S)-5-[2-fluoro-1-(fluoromethyl)-1-hydroxy-ethyl]-1-methyl-3,4-dihydro-1H-isoquinolin-2-yl]ethanone]",0.0316 to 0.1
13,"C[C@H]1c2cccc(C(C)(O)C(F)F)c2CCN1C(=O)Cc1c(Cl)c(C#N)cn2ncc(Cl)c12 (single isomer, unassigned) [Example 32]",≤ 0.0316
14,"C[C@H]1c2cccc(C(C)(O)C(F)F)c2CCN1C(=O)Cc1c(Cl)c(C2CC2)cn2ncc(Cl)c12 (single isomer, unassigned) [Example 31]",0.0316 to 0.1
15,"C[C@H]1c2cccc([C@](C)(O)CF)c2CCN1C(=O)Cc1c(Cl)ccc2[nH]nc(Cl)c12 [Example 3, 2-(3,5-dichloro-1H-indazol-4-yl)-1-[(1S)-5-[(1S)-2-fluoro-1-hydroxy-1-methyl-ethyl]-1-methyl-3,4-dihydro-1H-isoquinolin-2-yl]ethanone]",≤ 0.0316
